The source of these data is US8815893B2, “Hetarylaminonaphthyridines” (Merck Patent GmbH, priority 2010, dated 2014).

One assay concerns the target T1, GST-ALK5 (Homo sapiens, UniProt P36897).
T1 sequence (P36897 34-503): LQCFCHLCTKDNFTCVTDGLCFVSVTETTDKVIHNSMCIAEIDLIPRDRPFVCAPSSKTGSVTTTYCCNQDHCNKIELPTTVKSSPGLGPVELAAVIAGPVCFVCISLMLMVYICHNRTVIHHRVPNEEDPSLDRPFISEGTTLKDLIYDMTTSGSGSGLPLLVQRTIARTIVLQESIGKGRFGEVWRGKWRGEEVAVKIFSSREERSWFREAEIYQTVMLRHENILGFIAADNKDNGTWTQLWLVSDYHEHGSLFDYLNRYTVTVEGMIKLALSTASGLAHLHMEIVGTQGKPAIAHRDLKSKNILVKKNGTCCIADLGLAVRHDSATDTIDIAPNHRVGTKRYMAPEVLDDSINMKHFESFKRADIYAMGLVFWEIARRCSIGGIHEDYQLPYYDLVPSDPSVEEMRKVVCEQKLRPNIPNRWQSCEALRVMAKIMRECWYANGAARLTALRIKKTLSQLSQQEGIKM
The assay is described as follows: In-vitro (enzyme) kinase assay, 384-well flashplate (example 14). The format is biochemical. The following applies: GST-ALK5, GST-SMAD2 substrate, 33P-ATP flashplate, 30° C. 45 min; IC50 classes; read-out: TβR activity (example 14).

The test system of assay [1] is lung epithelial cell line Mv1Lu. The assay can be described thus: Cellular assay for TGF-beta receptor I kinase inhibitors: elimination of TGF-beta-mediated growth inhibition (example 13). The format is cell-based. The following applies: 48 h; Mv1Lu cells, 1 ng/ml TGF-beta, 0.5% FCS, two days, Crystal Violet staining; read-out: TβR activity (example 13). As for the experimental part: Cellular Assay for Testing TGF-Beta Receptor I Kinase Inhibitors
As an example, the ability of the inhibitors to eliminate TGF-beta-mediated growth inhibition was tested. Cells of the lung epithelial cell line Mv1Lu were sown in a defined cell density in a 96-well microtiter plate and cultivated overnight under standard conditions. Next day, the medium was replaced by medium which comprises 0.5% of FCS and 1 ng/ml of TGF-beta, and the test substances were added in defined concentrations, generally in the form of dilution series with 5 fold steps. The concentration of the solvent DMSO was constant at 0.5%. After a further two days, Crystal Violet staining of the cells was carried out. After extraction of the Crystal Violet from the fixed cells, the absorption was measured spectrophotometrically at 550 nm. It could be used as a quantitative measure of the adherent cells present and thus of the cell proliferation during the culture.

Structures are written as SMILES. pIC50: −log10 of the molar value.

Turning to `O=c1[nH]cc(-c2cc(-c3cc(Cl)ccc3F)nc3ncccc23)c2ccncc12` [compound 140], the pIC50 (at GST-ALK5; in assay [1]) was over 7.00 in each case.
On to `CCN1CCC(CNc2cc(Nc3cc(-c4cc(F)ccc4F)nc4ncccc34)ncn2)CC1` [compound 141], for which the pIC50 on GST-ALK5 is over 7.00; in assay [1], 6.00 to 7.00.
On the same counts, the results for `NC(=O)Nc1cc(Nc2cc(-c3cc(F)ccc3F)nc3ncccc23)ccn1` [compound 143] are over 7.00 and over 7.00.
Turning to `Fc1ccc(Cl)cc1-c1cc(-n2cc(Br)c3cnccc32)c2cccnc2n1` [compound 144], the pIC50 (on GST-ALK5; in assay [1]) was over 7.00 throughout.
With `Cc1cc(-c2cc(Nc3cc(N(C)C)ncn3)c3cccnc3n2)c(C)o1` [compound 145], the pIC50 (at GST-ALK5; in assay [1]) was under 5.00 in each case.
Regarding `O=c1c2cnccc2c(-c2cc(-c3cc(Cl)ccc3F)nc3ncccc23)cn1CCN1CCCC1` [compound 146], the pIC50 (at GST-ALK5; in assay [1]) was 6.00 to 7.00 throughout.
On to `Cc1cc(-c2cc(Nc3cc(NCCN4CCCC4)ncn3)c3cccnc3n2)c(C)o1` [compound 147], for which the pIC50 on GST-ALK5 is 5.00 to 6.00; in assay [1], under 5.00.
On to `CC(C)Oc1cccc(-c2cc(Nc3cc(NCCN4CCCC4)ncn3)c3cccnc3n2)c1` [compound 148], for which the pIC50 on GST-ALK5 was under 5.00; in assay [1], 5.00 to 6.00.
